The text below walks through data of ChEMBL document CHEMBL1857833, “Screening and optimization of specific chemical series against human African Trypanosomiasis (HAT)”.

Data set [1] is described as follows: DNDI: Cytotoxicity against L929 mouse fibroblasts, CYTO-SP, 24 hour. It is filed as toxicity, cell-based. The settings on record: mouse, L929 mouse fibroblasts.
The test system of data set [2] is Trypanosoma brucei. Nature of the data set: DNDI: Inhibition of Human African Trypanosomiasis, EATRO 110, in vitro. It is filed as functional, organism-based.
For data set [3], the system named is Trypanosoma brucei. Nature of the data set: DNDI: Inhibition of Human African Trypanosomiasis, SBRI 427, in vitro. The class given is functional, organism-based.
The test system of data set [4] is Trypanosoma brucei. Nature of the data set: DNDI: Mean survival time in days (MSD) of mice after intraperitoneal injection of Human African Trypanosomiasis (HAT), EATRO 110, at 0.5 mg/kg/day for 4 days. The class given is functional, Mus musculus.
In data set [5] the test system is Trypanosoma brucei. As to the kind of experiment: DNDI: Mean survival time in days (MSD) of mice after intraperitoneal injection of Human African Trypanosomiasis (HAT), EATRO 110, in vivo at 20 mg/kg/day for 4 days. It is filed as functional, Mus musculus.
Data set [6] deals with Trypanosoma brucei. As to the kind of experiment: DNDI: Mean survival time in days (MSD) of mice after intraperitoneal injection of Human African Trypanosomiasis (HAT), EATRO 110, in vivo at 1.25 mg/kg/day for 4 days. It is filed as functional, Mus musculus.
Data set [7] relates to Trypanosoma brucei. As to the kind of experiment: DNDI: Mean survival time in days (MSD) of mice after intraperitoneal injection of Human African Trypanosomiasis (HAT), EATRO 110, in vivo at 2.5 mg/kg/day for 4 days. It is filed as functional, Mus musculus.
For data set [8], the system named is Trypanosoma brucei. Nature of the data set: DNDI: Mean survival time in days (MSD) of mice after intraperitoneal injection of Human African Trypanosomiasis (HAT), EATRO 110, in vivo at 12.5 mg/kg/day for 4 days. The class given is functional, Mus musculus.
Data set [9] deals with Trypanosoma brucei. As to the kind of experiment: DNDI: Mean survival time in days (MSD) of mice after intraperitoneal injection of Human African Trypanosomiasis (HAT), EATRO 110, in vivo at 5 mg/kg/day for 4 days. It is filed as functional, Mus musculus.
Data set [10] is described as follows: DNDI: Lipophilicity measured in Chromatographic hydrophobicity index (CHI) assay, pH 7.4. It is filed as physicochemical. The settings on record: buffer.
The nature of data set [11]: DNDI: in vitro intrinsic clearance in mouse liver microsomes at a concentration of 10uM. The conditions noted are these: read-out: CLint in vitro. The class given is ADME, Microsome.
A short description of data set [12]: DNDI: half life in mouse liver microsomes at a concentration of 10uM. The class given is ADME, Microsome.
In data set [13] the target is T1, MDR1 (ABCB1) (Homo sapiens, UniProt P08183). As to the kind of experiment: DNDI: % of compound recovered from apical to basolateral permeability assay in MDCK cells transfected with human MDR1. It is filed as ADME, cell-based, Canis lupus familiaris. The conditions noted are these: dog.
In data set [14] the target is T1, MDR1 (ABCB1). Nature of the data set: DNDI: Apparent permeability from apical to basolateral side of the MDCK cell transfected with human MDR1. It is filed as ADME, cell-based, Canis lupus familiaris. The conditions noted are these: dog.
For data set [15], the target named is T1, MDR1 (ABCB1). Nature of the data set: DNDI: Apparent permeability from basolateral to apical side of the MDCK cell transfected with human MDR1 after 60 mins at a concentration of 3uM. The settings on record: dog. It is filed as ADME, cell-based, Canis lupus familiaris.
Data set [16] addresses T1, MDR1 (ABCB1). As to the kind of experiment: DNDI: % of compound recovered from basolateral to apical permeability assay in MDCK cells transfected with human MDR1. The settings on record: dog. It is filed as ADME, cell-based, Canis lupus familiaris.
Data set [17] addresses T1, MDR1 (ABCB1). Nature of the data set: (§1) DNDI: Efflux ratio for permeability from basolateral to apical side to apical to basolateral side of MDCK cells transfected with human MDR1. The class given is ADME, cell-based, Canis lupus familiaris. The settings on record: dog, read-out: B-A/A-B.
Data set [18] is described as follows: DNDI: Solubility in phosphate buffered saline at pH7.4 measured by optical density (turbidimetry) at room temperature (OD-RT). It is filed as physicochemical. The settings on record: pH 7.4.
A short description of data set [19]: DNDI: Solubility in phosphate buffered saline at pH7.4 measured by nephelometry at room temperature (NEPH-RT). It is filed as physicochemical. The settings on record: pH 7.4.
For data set [20] the following is noted: human, microsomes, 1 µM.
Description: (§3) DNDI: half life in human liver microsomes at a concentration of 1uM
For data set [21] the following is noted: human, microsomes, 1 µM. This is another data set of the same source.
Description: (§4) DNDI: in vitro intrinsic clearance in human liver microsomes at a concentration of 1uM
The conditions of data set [22]: mouse, microsomes, 1 µM.
Description: (§5) DNDI: in vitro intrinsic clearance in mouse liver microsomes at a concentration of 1uM
The nature of data set [23]: in vitro. The conditions noted are these: human, liver microsomes, t (1 / 2).
Description: as §3
Data set [24] is described as follows: in vitro. The conditions noted are these: human, liver microsomes, CLint in vitro.
Description: as §4
A short description of data set [25]: in vitro. The settings on record: mouse, liver microsomes.
Description: as §5
A short description of data set [26]: in vitro. The conditions noted are these: mouse, liver microsomes, t (1 / 2).
Description: DNDI: half life in mouse liver microsomes at a concentration of 1uM
Data set [27] can be described thus: (§2) DNDI: Cytotoxicity against L929 mouse fibroblasts, 72 hour. The class given is toxicity, cell-based. The settings on record: mouse, L929 mouse fibroblasts.
For data set [28], the system named is Trypanosoma brucei. As to the kind of experiment: DNDI: Mean survival time in days (MSD) of mice after intraperitoneal injection of Human African Trypanosomiasis (HAT), EATRO 110, in vivo at 50 mg/kg/day for 4 days. It is filed as functional, Mus musculus.
Data set [29] relates to Trypanosoma brucei. Nature of the data set: DNDI: Mean survival time in days (MSD) of mice after intraperitoneal injection of Human African Trypanosomiasis (HAT), STIB 795, in vivo at 50 mg/kg/day for 4 days. The class given is functional, Mus musculus.
Data set [30] can be described thus: DNDI: % of compound remaining in mouse S9 microsomes at a concentration of 1uM after 60 mins. The class given is ADME, subcellular, Liver, S9 fraction.
Data set [31] can be described thus: DNDI: % of compound remaining in rat S9 microsomes at a concentration of 1uM. The class given is ADME, subcellular, Liver, S9 fraction.
The target of data set [32] is T1, MDR1 (ABCB1). As to the kind of experiment: DNDI: % of compound recovered from apical to basolateral permeability assay in MDCK cells transfected with human MDR1 after 60 mins at a concentration of 3uM. The class given is ADME, cell-based, Canis lupus familiaris. The settings on record: dog.
In data set [33] the target is T2, ATP-dependent translocase ABCB1 (Homo sapiens, UniProt P08183). Nature of the data set: DNDI: Apparent permeability from apical to basolateral side of the MDCK cell transfected with human MDR1after 60 mins at a concentration of 3uM. The class given is ADME, cell-based, Canis lupus familiaris. The conditions noted are these: dog, mdck, 1 h, 3 µM.
Data set [34] concerns the target T2, ATP-dependent translocase ABCB1. As to the kind of experiment: DNDI: Apparent permeability from basolateral to apical side of the MDCK cell transfected with human MDR1after 60 mins at a concentration of 3uM. It is filed as ADME, cell-based, Canis lupus familiaris. The conditions noted are these: dog, 1 h.
The target of data set [35] is T1, MDR1 (ABCB1). Nature of the data set: DNDI: % of compound recovered from basolateral to apical permeability assay in MDCK cells transfected with human MDR1 after 60 mins at a concentration of 3uM. The class given is ADME, cell-based, Canis lupus familiaris. The settings on record: dog.
Data set [36] addresses T2, ATP-dependent translocase ABCB1. Described as §1. The settings on record: dog, mdck. The class given is ADME, cell-based, Canis lupus familiaris.
A further data set has as its system L929. Described as §2. It is filed as toxicity, cell-based. The conditions noted are these: l929.
The mark [37] stands for this setting: Trypanosoma brucei, SBRI 427, read-out: IC50.

Each structure is given as a SMILES string. Values after ≈ are worked out from the molar mass of the structure shown.

T2 sequence (P08183 whole entry): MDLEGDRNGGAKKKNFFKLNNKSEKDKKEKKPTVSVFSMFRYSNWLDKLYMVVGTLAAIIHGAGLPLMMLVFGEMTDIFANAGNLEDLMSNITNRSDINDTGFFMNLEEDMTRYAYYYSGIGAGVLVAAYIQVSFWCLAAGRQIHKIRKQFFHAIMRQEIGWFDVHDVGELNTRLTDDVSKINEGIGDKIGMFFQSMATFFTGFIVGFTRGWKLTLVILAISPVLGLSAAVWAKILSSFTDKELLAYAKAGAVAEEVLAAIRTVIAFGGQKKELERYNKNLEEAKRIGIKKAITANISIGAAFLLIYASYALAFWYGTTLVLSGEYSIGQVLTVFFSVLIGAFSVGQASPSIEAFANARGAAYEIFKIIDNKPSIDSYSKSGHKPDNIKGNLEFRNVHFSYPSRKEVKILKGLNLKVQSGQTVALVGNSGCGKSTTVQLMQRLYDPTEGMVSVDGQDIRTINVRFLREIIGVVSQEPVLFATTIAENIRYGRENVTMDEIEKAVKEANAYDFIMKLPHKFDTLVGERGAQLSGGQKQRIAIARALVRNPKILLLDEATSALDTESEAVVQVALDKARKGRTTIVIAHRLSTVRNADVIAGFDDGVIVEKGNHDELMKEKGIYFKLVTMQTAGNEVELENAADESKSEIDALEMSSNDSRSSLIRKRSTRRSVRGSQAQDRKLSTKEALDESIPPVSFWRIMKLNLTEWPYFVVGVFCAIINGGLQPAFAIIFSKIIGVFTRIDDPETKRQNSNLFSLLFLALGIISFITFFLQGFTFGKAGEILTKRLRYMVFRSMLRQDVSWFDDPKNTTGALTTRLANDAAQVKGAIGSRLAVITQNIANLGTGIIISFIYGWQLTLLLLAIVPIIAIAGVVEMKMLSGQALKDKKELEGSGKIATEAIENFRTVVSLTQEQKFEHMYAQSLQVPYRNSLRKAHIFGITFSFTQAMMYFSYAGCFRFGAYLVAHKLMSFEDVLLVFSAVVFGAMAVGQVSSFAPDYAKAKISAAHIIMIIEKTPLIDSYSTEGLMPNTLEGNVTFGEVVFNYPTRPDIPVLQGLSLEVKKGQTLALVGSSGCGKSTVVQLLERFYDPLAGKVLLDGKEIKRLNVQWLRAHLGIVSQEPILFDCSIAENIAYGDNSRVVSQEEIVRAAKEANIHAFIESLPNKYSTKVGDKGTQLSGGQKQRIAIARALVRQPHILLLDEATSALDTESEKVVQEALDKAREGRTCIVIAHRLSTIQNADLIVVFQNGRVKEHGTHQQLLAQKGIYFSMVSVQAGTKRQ
T1 sequence (P08183 whole entry): as above

As for `O/N=C(/NC1CCCCC1)c1cccnc1Oc1ccccc1Cl`, in data set [1], the IC50 at 24 h was greater than 50 µg/mL. In addition, the IC50 is 1.41 µg/mL (≈ 4.08 µM) in the data set on Trypanosoma brucei [2] and 0.95 µg/mL (≈ 2.75 µM) in the data set with Trypanosoma brucei [3] (setting [37]). The MSD in the data set on Trypanosoma brucei [4], in the data set on Trypanosoma brucei [5], with Trypanosoma brucei [6], in the data set on Trypanosoma brucei [7], with Trypanosoma brucei [8] and in the data set on Trypanosoma brucei [9] was 4 days in each case. Also, the chromatographic logD in data set [10] was determined as 4.52. Further, in [11], the microsomal CLint at 10 µM came to 211 µL/min/mg. In addition, the half-life at 10 µM in [12] was 14 min. In addition, the figures for the recovery at MDR1 (ABCB1) [13] and on MDR1 (ABCB1) [16] were 58% and 67%, respectively. At MDR1 (ABCB1) [14], the Papp A→B was determined as 30.2 ×10⁻⁶ cm/s. Besides, on MDR1 (ABCB1) [15], the Papp B→A at 1 h, 3 µM was 34.8 ×10⁻⁶ cm/s. Further, the efflux ratio at MDR1 (ABCB1) [17] amounted to 1.2. This molecule also came in with a kinetic solubility in data set [18] of 4 µM (≈ 1.38 µg/mL).

`COc1ccc(/C(CNC2CCCCC2)=N/O)cc1` registered an IC50 at 24 h in [1] greater than 50 µg/mL. Further, the IC50 in the data set on Trypanosoma brucei [3] (setting [37]) was 4.47 µg/mL (≈ 17 µM). In addition, the chromatographic logD in [10] was 2.93. This molecule registered a solubility (kinetic) in [19] of 13 µM (≈ 3.41 µg/mL). For the same molecule, the “t (1 / 2)” value in data set [20] was found to be 11 min. In addition, the values for the CLint in vitro in data set [21] and in [22] were 75 µL/min/mg and 224 µL/min/mg, respectively. Also, the figures for the half-life at 1 µM in the data set “in vitro [23]” and in the data set “in vitro [26]” were 13 min and 4 min, respectively. Besides, the microsomal CLint at 1 µM in “in vitro [24]” was determined as 66 µL/min/mg; in the data set “in vitro [25]”, 235 µL/min/mg.

As to `CCCCc1ccc(-c2nc(CNCCC3CCCN3C)co2)cc1` (stereo not drawn), the IC50 at 72 h in data set [27] came out at 4.21 µg/mL (≈ 12.3 µM). Moreover, the IC50 with Trypanosoma brucei [3] was determined as 0.21 µg/mL (≈ 0.615 µM); with Trypanosoma brucei [3] (setting [37]), 0.19 µg/mL (≈ 0.556 µM). The MSD in the data set with Trypanosoma brucei [28] is 10 days; in the data set with Trypanosoma brucei [29], 7 days. This molecule also displayed a chromatographic logD in [10] of 4.69. In [30], this molecule registered a share remaining at 1 h, 1 µM of 57.4%. In data set [31], this molecule came in with a fraction remaining at 1 µM of 3.27%. The solubility (kinetic) in [19] turned out to be 100 µM (≈ 34.1 µg/mL). The molecule also had a CLint in vitro in [22] of 23 µL/min/mg. In the data set “in vitro [26]”, this molecule returned a half-life at 1 µM of 37 min.

In [27], `CN(C)CCNc1nc(Oc2cccc3ccccc23)c2sccc2n1` displayed an IC50 at 72 h of 3.48 µg/mL (≈ 9.55 µM). The IC50 with Trypanosoma brucei [3] (setting [37]) came to 1.28 µg/mL (≈ 3.51 µM). The molecule also registered a chromatographic logD in data set [10] of 4.85. In addition, the recovery at 1 h, 3 µM at MDR1 (ABCB1) [32] amounted to 77.5%; at MDR1 (ABCB1) [35] it was 110%. Further, the Papp in data set [33] was found to be 11.62 ×10⁻⁶ cm/s; in data set [34], 21.11 ×10⁻⁶ cm/s. In [36], the “Calculated Ratio” value is reported as 0.45. Besides, the kinetic solubility in data set [19] stood at 100 µM (≈ 36.4 µg/mL).

On to `CN1CCCC1CCNCc1coc(-c2ccc(OC3CCCC3)cc2)n1` (stereo not drawn), for which 1.33 µg/mL (≈ 3.6 µM) corresponded to half-maximal inhibition in data set [27] (IC50 at 72 h). For the same molecule, the IC50 in the data set on L929 amounted to 1.42 µg/mL (≈ 3.84 µM); in the data set on Trypanosoma brucei [3] (setting [37]), 0.22 µg/mL (≈ 0.595 µM). Further, the MSD with Trypanosoma brucei [28] is less than 1 days.
